From patent US9173952B2, “Mitochondrial penetrating peptides as carriers for antimicrobials” (priority 2010, dated 2015)
Converted amounts (≈) assume the structure as drawn. “Also recorded” adds a separate entry of the source. Like-named read-outs stand apart in the source and are kept apart here. Each block holds one compound with its values, some of them ahead of it. Starred links: 1 amine or outer side, 2 acyl side, 3 side chain; linkers in the order of their positions; H or OH if unused. Non-standard residues stand in square brackets, D forms with d. Residues, ends and D or L forms follow the SMILES beside them. *: point of attachment. DAMPA = CN(Cc1cnc2nc(N)nc(N)c2n1)c1ccc(C(=O)*)cc1; γGlu = O=C(O)[C@H](CCC(=O)[*:2])N[*:1]; Cha = N[C@@H](CC1CCCCC1)C(=O)O

Key:
[1] = tested on: E. coli strain JW5503; assay: microbe, parasite or virus in culture; type: cell-based, Escherichia coli
Procedure: (§1) Cell Culturing Conditions. HeLa cells were cultured in MEM alpha (Invitrogen, Carlsbad) supplemented with 10% (v/v) FBS at 37° C. with 5% CO2. Escherichia coli strain JW5503 from the Keio collection^12 (F−, Δ(araD-araB)567, ΔlacZ4787(:rrnB-3), λ^−, ΔtolC732:kan, rph-1, Δ(rhaD-rhaB)568, hsdR514) was grown on solid LB-agar or in LB liquid media supplemented with 50 μg/mL kanamycin at 37° C. Strains harboring the pCA24N plasmid were additionally grown with chloramphenicol at 20 μg/mL. B. subtilis was grown in LB media. S. aureus and E. faecalis were grown in Trypticase Soy Broth (TSB). S. pneumoniae were grown in TSB+5% defibrinated sheep's blood at 37° C. in an atmosphere of 5% CO2.
(§2) Minimum inhibitory concentration (MIC) determinations were performed to characterize the effect of each compound on bacterial growth. Briefly, overnight cultures were subcultured at 1:100 and grown to and OD600 of 0.5. Cells were Diluted 1:10000 into fresh media with test compounds. Cells were incubated for 16 hours at 37° C. Growth was monitored at OD600. Multi-copy suppression of compound toxicity was accomplished by inducing FolA (DHFR) expression from the pCA24N plasmid with 0.1 mM IPTG prior the incubation with test compounds. Compound toxicity was assessed in LB media for E. coli. […]

[2] = Analysis of cell toxicity (HeLa), CCK-8 viability; type: cell-based; details: human, HeLa cells, 72-hour incubation, read-out: LD50 (50% lethal dose, concentration where 50% toxicity is observed)
Procedure: HeLa cells were cultured as described above. Cells were seeded in 96-well flat bottom tissue culture plates (Starsted, N.C.) at a density of 1500 cells per well. The culture media was removed and cells were washed with MEM-alpha (minus nucleotides). […] Cellular viability was analyzed after the indicated times using the CCK-8 viability dye (Dojindo, Rockville, Md.) at an absorbance of 450 nm.

[3] = tested on: HeLa cells; assay: Measurement of mitochondrial membrane potential (JC-1, flow cytometry); type: cell-based, human; details: Mtx-Fxr3 16 μM 72 hours, FCCP 10 μM 6 minutes
Procedure: HeLa cells were seeded in at 6,250 cells per well in 24 well plates. […] Carbonyl cyanide 4-(trifluoromethoxy)phenylhydrazone (FCCP) was added at 10 μM for 6 minutes prior to analysis to disrupt the mitochondrial membrane potential. The mitchondrial membrane potential sensitive dye JC-1 (Invitrogen, Carlsbad Calif.) was added at 5 μg/mL for 10 minutes at 37° C. Cells were washed with PBS and harvested as described above. Samples were subsequently analyzed by flow cytometry on a BD FACSCanto flow cytometer (BD Biosciences) with excitation at 488 nm and emmission wavelengths of 530 nm and 585 nm collected. Ratio of these two emmission wavelengths was used to measure changes in mitochondrial membrane potential.

[4] = tested on: HeLa cells; assay: Measurement of cellular ATP levels; type: cell-based, human; details: Mtx-Fxr3 16 μM 16 hours, rotenone 100 nM 1 hour
Procedure: HeLa cells were seeded at a density of 50,000 cells per well one day prior to experiments. […] After treatment, cells were washed with PBS, harvested with trypsin/EDTA for 7 min at 37° C. Complete media was added to terminate the reaction and cells were collected by centrifugation (8 min at 700×g) and washed with PBS. Cells were lysed with 40 μl 1% TCA/4 mM EDTA for 20 minutes on ice, followed by 20 μl 1M Tris buffer pH 7.4. ATP levels were assessed using the ATP Bioluminescent Assay Kit (Sigma, Saint Louis Mich.) and a Spectramax M5 plate reader (Molecular Devices, Sunnyvale Calif.).

[5] = tested on: E. faecalis (ATCC 29212); assay: microbe, parasite or virus in culture; type: cell-based, Enterococcus faecalis
Procedure: as §1, §2

[6] = tested on: B. subtilis; assay: microbe, parasite or virus in culture; type: cell-based, Bacillus subtilis
Procedure: as §1, §2

[7] = tested on: S. pneumoniae (ATCC 49619); assay: microbe, parasite or virus in culture; type: cell-based, Streptococcus pneumoniae
Procedure: Minimum inhibitory concentration (MIC) determinations were performed to characterize the effect of each compound on bacterial growth. Briefly, overnight cultures were subcultured at 1:100 and grown to and OD600 of 0.5. Cells were Diluted 1:10000 into fresh media with test compounds. Cells were incubated for 16 hours at 37° C. Growth was monitored at OD600. […] For S. aureus B. subtilis, S. pneumonaie, and E. faecalis the defined media Mem-alpha minus nucleotides (Invitrogen, Carlsbad Calif.) was used to control for variability in thymidine content of undefined media. The final dilution into media was at 1:2000 for S. pneumoniae, and E. faecalis. 3% laked horse blood was added to the media for S. pnemoniae.

[8] = tested on: S. aureus (ATCC 29213); assay: microbe, parasite or virus in culture; type: cell-based, Staphylococcus aureus
Procedure: as §1, §2

[9] = tested on: MRSA (ATCC BAA-1720); assay: microbe, parasite or virus in culture; type: cell-based, methicillin-resistant S. aureus
Procedure: as §1, §2

SMILES: CN(Cc1cnc2nc(N)nc(N)c2n1)c1ccc(C(=O)N[C@@H](CCC(=O)N[C@@H](CC2CCCCC2)C(=O)N[C@H](CCCNC(=N)N)C(=O)N[C@@H](CC2CCCCC2)C(=O)N[C@H](CCCNC(=N)N)C(=O)N[C@@H](CC2CCCCC2)C(=O)N[C@H](CCCNC(=N)N)C(N)=O)C(=O)O)cc1 [Mtx-Fxr3, Mtx-FxrFxrFxr] ({DAMPA-γGlu}-[Cha][dR][Cha][dR][Cha][dR]-NH2)
MIC (minimum inhibitory concentration) ([1]; strain JW5503, 16 h): 0.5 µM (≈ 0.691 µg/mL)
CC50 at 72 h [2]: > 16 µM
effect on mitochondrial membrane potential [3]: not perturb the mitochondrial membrane potential; also recorded: did not affect
effect on cellular ATP levels [4]: did not result in a decrease in cellular ATP levels; also recorded: did not affect

SMILES: CN(Cc1cnc2nc(N)nc(N)c2n1)c1ccc(C(=O)N[C@@H](CCC(=O)O)C(=O)O)cc1 [Mtx, methotrexate, reference compound]
MIC ([1]; Escherichia coli, JW5503, 16 h, read-out: MIC (minimum inhibitory concentration)): > 32 µM
MIC ([5]; Enterococcus faecalis, ATCC29212, E. faecalis (ATCC 29212), Mem-alpha minus nucleotides): 4 µM (≈ 1.82 µg/mL)
MIC ([6]; Bacillus subtilis, B. subtilis, Mem-alpha minus nucleotides): > 16 µM
MIC ([7]; Streptococcus pneumoniae, ATCC49619, S. pneumoniae (ATCC 49619), Mem-alpha minus nucleotides, 3% laked horse blood): 0.5 µM (≈ 0.227 µg/mL)
MIC ([8]; Staphylococcus aureus, ATCC29213, S. aureus (ATCC 29213), Mem-alpha minus nucleotides): > 32 µM
MIC ([9]; Staphylococcus aureus, MRSA (ATCC BAA-1720)): > 32 µM

MIC ([5]; ATCC 29212): > 16 µM
MIC [6]: > 16 µM
MIC ([7]; ATCC 49619): > 16 µM
MIC ([8]; ATCC 29213): > 32 µM
MIC ([9]; ATCC BAA-1720): > 32 µM
SMILES: N=C(N)NCCC[C@@H](NC(=O)[C@H](CC1CCCCC1)NC(=O)[C@@H](CCCNC(=N)N)NC(=O)[C@H](CC1CCCCC1)NC(=O)[C@@H](CCCNC(=N)N)NC(=O)[C@@H](N)CC1CCCCC1)C(N)=O [Fxr3, FxrFxrFxr] (H-[Cha][dR][Cha][dR][Cha][dR]-NH2; N-terminus assumed)

SMILES: N#CC(C#N)=NNc1ccc(OC(F)(F)F)cc1 [FCCP, Carbonyl cyanide 4-(trifluoromethoxy)phenylhydrazone, reference compound]
effect on mitochondrial membrane potential [3]: significant decrease in membrane potential
